Measurements as given in ChEMBL document CHEMBL3046825, “Molecular Mechanism for Selective Toxicity of Nicotinoids and Neonicotinoids” (J Pestic Sci, 1995).
The source made the active and inactive calls. The calls are words filed in the database; no cut-off is given here.

How the values were obtained:
[1] = Displacement of [3H]nicotine from nAChR in Sprague-Dawley Rattus norvegicus (rat) whole brain homogenates; type: tissue-based
[2] = Displacement of [3H]alpha-BGT from nAChR in Apis mellifera (honeybee) head
[3] = molecular target: Acetylcholine receptor subunit alpha (Torpedo californica) (UniProt P02710); assay: Increase in [3H]PCP binding to nAChR in Torpedo nobiliana electric organs in presence of carbachol; settings: Electric organ
[4] = molecular target: Acetylcholine receptor subunit alpha (Torpedo californica) (UniProt P02710); assay: Increase in [3H]PCP binding to nAChR in Torpedo nobiliana electric organs; settings: Electric organ
[5] = molecular target: Acetylcholine receptor subunit alpha (Torpedo californica) (UniProt P02710); assay: Displacement of [3H]alpha-BGT from nAChR in Torpedo nobiliana electric organs at 300 uM; settings: Electric organ
Rattus norvegicus = organism: Rattus norvegicus; assay: Displacement of [3H]nicotine from nAChR in Sprague-Dawley Rattus norvegicus (rat) whole brain homogenates at 1000 uM; type: tissue-based
Apis mellifera = assay: Displacement of [3H]alpha-BGT from nAChR in Apis mellifera (honeybee) head at 1000 uM
[6] = molecular target: Acetylcholine receptor subunit alpha (Torpedo californica) (UniProt P02710); assay: Displacement of [3H]alpha-BGT from nAChR in Torpedo nobiliana electric organs at 1000 uM; settings: Electric organ
[7] = molecular target: Acetylcholine receptor subunit alpha (Torpedo californica) (UniProt P02710); assay: Inhibition of [3H]PCP binding to nAChR in Torpedo nobiliana electric organs in presence of carbachol; settings: Electric organ

Acetylcholine receptor subunit alpha (Torpedo californica), sequence (P02710 whole entry): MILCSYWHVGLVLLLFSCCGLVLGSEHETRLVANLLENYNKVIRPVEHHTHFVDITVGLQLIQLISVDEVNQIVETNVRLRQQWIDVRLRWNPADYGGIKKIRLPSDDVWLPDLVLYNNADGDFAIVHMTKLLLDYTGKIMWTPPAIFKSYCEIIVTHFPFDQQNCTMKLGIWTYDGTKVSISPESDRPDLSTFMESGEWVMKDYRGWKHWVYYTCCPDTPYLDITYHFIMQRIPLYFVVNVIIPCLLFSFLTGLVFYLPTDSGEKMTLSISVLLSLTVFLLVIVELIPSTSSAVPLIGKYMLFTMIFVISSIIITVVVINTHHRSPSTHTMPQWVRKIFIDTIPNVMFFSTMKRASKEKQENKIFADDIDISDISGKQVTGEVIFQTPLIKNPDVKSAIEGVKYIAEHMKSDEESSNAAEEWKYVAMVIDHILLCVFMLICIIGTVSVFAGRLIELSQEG

| SMILES | IC50 [1] | IC50 [2] | Activity [3] | Activity [4] | further results |
| --- | --- | --- | --- | --- | --- |
| C[N+](C)(C)CCOC(N)=O [CARBACHOL] | 0.647 µM | 90.2 µM | – | – | – |
| CN(C)Cc1ccncc1 | – | – | inactive | Active | – |
| CN1CCC[C@H]1c1cccnc1 [NICOTINE] | 0.0096 µM | 1.25 µM | inactive | Active | – |
| C/C(=N\C#N)N(C)Cc1ccc(Cl)nc1 [ACETAMIPRID] | – | 8.83 µM | – | – | inhibition [5]: 12.6% |
| Cn1cccc1-c1cccnc1 [NICOTYRINE] | > 1000 µM | > 1000 µM | – | – | inhibition (Rattus norvegicus): 15.6%; inhibition (Apis mellifera): 1.5%; inhibition [6]: 2.55% |
| O=[N+]([O-])C=C1NCCCS1 | 109 µM | 1360 µM | – | – | – |
| CN(C)Cc1ccccn1 | – | – | inactive | Active | – |
| CCN(Cc1ccc(Cl)nc1)/C(=C/[N+](=O)[O-])NC [NITENPYRAM] | – | 61.3 µM | – | – | – |
| CN(C)Cc1cccnc1 | – | – | inactive | Active | – |
| c1cncc([C@@H]2CCCCN2)c1 [ANABASINE] | 0.285 µM | 1.98 µM | – | – | – |
| O=[N+]([O-])/N=C1\NCCN1Cc1ccc(Cl)nc1 [IMIDACLOPRID] | 0.984 µM | 1.95 µM | inactive | 300% | inhibition [7]: inactive |
| C[N+](C)(C)C [TRETRAMETHYLAMMONIUM IODIDE] | – | 542 µM | inactive | Active | – |
